Experimental data taken from ChEMBL document CHEMBL2380302, “Synthesis of 3-O-propargylated betulinic acid and its 1,2,3-triazoles as potential apoptotic agents” (Eur J Med Chem, 2013).
pIC50: −log10 of the molar value.

What was measured:
THP-1 [1] = assay: Cytotoxicity against human THP1 cells after 48 hrs by SRB assay; type: functional, cell-based; settings: THP-1, 48 h
HEp-2 [2] = assay: Cytotoxicity against human Hep2 cells at 50 uM after 48 hrs by SRB assay; type: functional; settings: HEp-2, 48 h, read-out: GI
HEp-2 [3] = assay: Cytotoxicity against human Hep2 cells at 10 uM after 48 hrs by SRB assay; type: functional; settings: HEp-2, 48 h, read-out: GI
MCF7 [4] = assay: Cytotoxicity against human MCF7 cells at 50 uM after 48 hrs by SRB assay; type: functional; settings: MCF7, 48 h, read-out: GI
HCT-15 [5] = assay: Cytotoxicity against human HCT15 cells at 30 uM after 48 hrs by SRB assay; type: functional; settings: HCT-15, 48 h, read-out: GI
SF-295 [6] = assay: Cytotoxicity against human SF295 cells at 50 uM after 48 hrs by SRB assay; type: functional; settings: SF-295, 48 h, read-out: GI
SF-295 [7] = assay: Cytotoxicity against human SF295 cells after 48 hrs by SRB assay; type: functional, cell-based; settings: SF-295, 48 h
PC-3 [8] = assay: Cytotoxicity against human PC3 cells at 10 uM after 48 hrs by SRB assay; type: functional; settings: PC-3, 48 h, read-out: GI
DU-145 [9] = assay: Cytotoxicity against human DU145 cells at 10 uM after 48 hrs by SRB assay; type: functional; settings: DU-145, 48 h, read-out: GI
HL-60 [10] = assay: Cytotoxicity against human HL60 cells after 48 hrs by SRB assay; type: functional, cell-based; settings: HL-60, 48 h
DU-145 [11] = assay: Cytotoxicity against human DU145 cells at 50 uM after 48 hrs by SRB assay; type: functional; settings: DU-145, 48 h, read-out: GI
DU-145 [12] = assay: Cytotoxicity against human DU145 cells at 30 uM after 48 hrs by SRB assay; type: functional; settings: DU-145, 48 h, read-out: GI
HL-60 [13] = assay: Cytotoxicity against human HL60 cells at 30 uM after 48 hrs by SRB assay; type: functional; settings: HL-60, 48 h, read-out: GI
HCT-15 [14] = assay: Cytotoxicity against human HCT15 cells at 10 uM after 48 hrs by SRB assay; type: functional; settings: HCT-15, 48 h, read-out: GI
A549 [15] = assay: Cytotoxicity against human A549 cells at 30 uM after 48 hrs by SRB assay; type: functional; settings: A549, 48 h, read-out: GI
HCT-15 [16] = assay: Cytotoxicity against human HCT15 cells after 48 hrs by SRB assay; type: functional, cell-based; settings: HCT-15, 48 h
HCT-15 [17] = assay: Cytotoxicity against human HCT15 cells at 50 uM after 48 hrs by SRB assay; type: functional; settings: HCT-15, 48 h, read-out: GI
THP-1 [18] = assay: Cytotoxicity against human THP1 cells at 10 uM after 48 hrs by SRB assay; type: functional; settings: THP-1, 48 h, read-out: GI
PC-3 [19] = assay: Cytotoxicity against human PC3 cells at 50 uM after 48 hrs by SRB assay; type: functional; settings: PC-3, 48 h, read-out: GI
DU-145 [20] = assay: Cytotoxicity against human DU145 cells after 48 hrs by SRB assay; type: functional, cell-based; settings: DU-145, 48 h
MCF7 [21] = assay: Cytotoxicity against human MCF7 cells at 30 uM after 48 hrs by SRB assay; type: functional; settings: MCF7, 48 h, read-out: GI
SF-295 [22] = assay: Cytotoxicity against human SF295 cells at 10 uM after 48 hrs by SRB assay; type: functional; settings: SF-295, 48 h, read-out: GI
A549 [23] = assay: Cytotoxicity against human A549 cells at 10 uM after 48 hrs by SRB assay; type: functional; settings: A549, 48 h, read-out: GI
THP-1 [24] = assay: Cytotoxicity against human THP1 cells at 30 uM after 48 hrs by SRB assay; type: functional; settings: THP-1, 48 h, read-out: GI
A549 [25] = assay: Cytotoxicity against human A549 cells after 48 hrs by SRB assay; type: functional, cell-based; settings: A549, 48 h
PC-3 [26] = assay: Cytotoxicity against human PC3 cells at 30 uM after 48 hrs by SRB assay; type: functional; settings: PC-3, 48 h, read-out: GI
HEp-2 [27] = assay: Cytotoxicity against human Hep2 cells after 48 hrs by SRB assay; type: functional, cell-based; settings: HEp-2, 48 h
HL-60 [28] = assay: Cytotoxicity against human HL60 cells at 50 uM after 48 hrs by SRB assay; type: functional; settings: HL-60, 48 h, read-out: GI
PC-3 [29] = assay: Cytotoxicity against human PC3 cells after 48 hrs by SRB assay; type: functional, cell-based; settings: PC-3, 48 h
A549 [30] = assay: Cytotoxicity against human A549 cells at 50 uM after 48 hrs by SRB assay; type: functional; settings: A549, 48 h, read-out: GI
MCF7 [31] = assay: Cytotoxicity against human MCF7 cells at 10 uM after 48 hrs by SRB assay; type: functional; settings: MCF7, 48 h, read-out: GI
HL-60 [32] = assay: Cytotoxicity against human HL60 cells at 10 uM after 48 hrs by SRB assay; type: functional; settings: HL-60, 48 h, read-out: GI
SF-295 [33] = assay: Cytotoxicity against human SF295 cells at 30 uM after 48 hrs by SRB assay; type: functional; settings: SF-295, 48 h, read-out: GI
HEp-2 [34] = assay: Cytotoxicity against human Hep2 cells at 30 uM after 48 hrs by SRB assay; type: functional; settings: HEp-2, 48 h, read-out: GI
MCF7 [35] = assay: Cytotoxicity against human MCF7 cells after 48 hrs by SRB assay; type: functional, cell-based; settings: MCF7, 48 h
THP-1 [36] = assay: Cytotoxicity against human THP1 cells at 50 uM after 48 hrs by SRB assay; type: functional; settings: THP-1, 48 h, read-out: GI

SMILES: C=C(C)[C@@H]1CC[C@]2(C(=O)O)CC[C@]3(C)[C@H](CC[C@@H]4[C@@]5(C)CC[C@H](OCc6cn(-c7ccc([N+](=O)[O-])cc7)nn6)C(C)(C)[C@@H]5CC[C@]43C)[C@@H]12
- pIC50 (THP-1 [1]): 5.05
- inhibition of growth at 50 µM (HEp-2 [2]): 72%
- inhibition of growth at 10 µM (HEp-2 [3]): 43%
- inhibition of growth at 50 µM (MCF7 [4]): 53%
- inhibition of growth at 30 µM (HCT-15 [5]): 52%
- inhibition of growth at 50 µM (SF-295 [6]): 87%
- pIC50 (SF-295 [7]): 5.10
- inhibition of growth at 10 µM (PC-3 [8]): 48%
- inhibition of growth at 10 µM (DU-145 [9]): 43%
- pIC50 (HL-60 [10]): 5.35
- inhibition of growth at 50 µM (DU-145 [11]): 72%
- inhibition of growth at 30 µM (DU-145 [12]): 54%
- inhibition of growth at 30 µM (HL-60 [13]): 78%
- inhibition of growth at 10 µM (HCT-15 [14]): 36%
- inhibition of growth at 30 µM (A549 [15]): 49%
- pIC50 (HCT-15 [16]): 4.55
- inhibition of growth at 50 µM (HCT-15 [17]): 65%
- inhibition of growth at 10 µM (THP-1 [18]): 51%
- inhibition of growth at 50 µM (PC-3 [19]): 74%
- pIC50 (DU-145 [20]): 4.62
- inhibition of growth at 30 µM (MCF7 [21]): 44%
- inhibition of growth at 10 µM (SF-295 [22]): 52%
- inhibition of growth at 10 µM (A549 [23]): 28%
- inhibition of growth at 30 µM (THP-1 [24]): 68%
- pIC50 (A549 [25]): 4.82
- inhibition of growth at 30 µM (PC-3 [26]): 59%
- pIC50 (HEp-2 [27]): 4.82
- inhibition of growth at 50 µM (HL-60 [28]): 94%
- pIC50 (PC-3 [29]): 4.89
- inhibition of growth at 50 µM (A549 [30]): 62%
- inhibition of growth at 10 µM (MCF7 [31]): 20%
- inhibition of growth at 10 µM (HL-60 [32]): 63%
- inhibition of growth at 30 µM (SF-295 [33]): 72%
- inhibition of growth at 30 µM (HEp-2 [34]): 54%
- pIC50 (MCF7 [35]): 4.42
- inhibition of growth at 50 µM (THP-1 [36]): 93%

SMILES: C=C(C)[C@@H]1CC[C@]2(C(=O)O)CC[C@]3(C)[C@H](CC[C@@H]4[C@@]5(C)CC[C@H](OCc6cn(C7O[C@H](COC(C)=O)[C@@H](OC(C)=O)[C@H](OC(C)=O)[C@H]7OC(C)=O)nn6)C(C)(C)[C@@H]5CC[C@]43C)[C@@H]12 (stereo partly drawn)
- pIC50 (THP-1 [1]): 4.70
- inhibition of growth at 50 µM (HEp-2 [2]): 44%
- inhibition of growth at 10 µM (HEp-2 [3]): 24%
- inhibition of growth at 50 µM (MCF7 [4]): 32%
- inhibition of growth at 30 µM (HCT-15 [5]): 54%
- inhibition of growth at 50 µM (SF-295 [6]): 5%
- pIC50 (SF-295 [7]): < 4.30
- inhibition of growth at 10 µM (PC-3 [8]): 8%
- inhibition of growth at 10 µM (DU-145 [9]): 7%
- pIC50 (HL-60 [10]): 5.10
- inhibition of growth at 50 µM (DU-145 [11]): 8%
- inhibition of growth at 30 µM (DU-145 [12]): 4%
- inhibition of growth at 30 µM (HL-60 [13]): 63%
- inhibition of growth at 10 µM (HCT-15 [14]): 39%
- inhibition of growth at 30 µM (A549 [15]): 20%
- pIC50 (HCT-15 [16]): 4.57
- inhibition of growth at 50 µM (HCT-15 [17]): 62%
- inhibition of growth at 10 µM (THP-1 [18]): 44%
- inhibition of growth at 50 µM (PC-3 [19]): 11%
- pIC50 (DU-145 [20]): < 4.30
- inhibition of growth at 30 µM (MCF7 [21]): 15%
- inhibition of growth at 10 µM (SF-295 [22]): 8%
- inhibition of growth at 10 µM (A549 [23]): 5%
- inhibition of growth at 30 µM (THP-1 [24]): 58%
- pIC50 (A549 [25]): < 4.30
- inhibition of growth at 30 µM (PC-3 [26]): 7%
- pIC50 (HEp-2 [27]): < 4.30
- inhibition of growth at 50 µM (HL-60 [28]): 80%
- pIC50 (PC-3 [29]): < 4.30
- inhibition of growth at 50 µM (A549 [30]): 43%
- inhibition of growth at 10 µM (MCF7 [31]): 8%
- inhibition of growth at 10 µM (HL-60 [32]): 52%
- inhibition of growth at 30 µM (SF-295 [33]): 5%
- inhibition of growth at 30 µM (HEp-2 [34]): 39%
- pIC50 (MCF7 [35]): < 4.30
- inhibition of growth at 50 µM (THP-1 [36]): 76%

SMILES: C=C(C)[C@@H]1CC[C@]2(C(=O)O)CC[C@]3(C)[C@H](CC[C@@H]4[C@@]5(C)CC[C@H](OCc6cn(-c7ccccc7CO)nn6)C(C)(C)[C@@H]5CC[C@]43C)[C@@H]12
- pIC50 (THP-1 [1]): 4.82
- inhibition of growth at 50 µM (HEp-2 [2]): 64%
- inhibition of growth at 10 µM (HEp-2 [3]): 45%
- inhibition of growth at 50 µM (MCF7 [4]): 80%
- inhibition of growth at 30 µM (HCT-15 [5]): 80%
- inhibition of growth at 50 µM (SF-295 [6]): 77%
- pIC50 (SF-295 [7]): 4.77
- inhibition of growth at 10 µM (PC-3 [8]): 10%
- inhibition of growth at 10 µM (DU-145 [9]): 43%
- pIC50 (HL-60 [10]): 5.00
- inhibition of growth at 50 µM (DU-145 [11]): 65%
- inhibition of growth at 30 µM (DU-145 [12]): 55%
- inhibition of growth at 30 µM (HL-60 [13]): 69%
- inhibition of growth at 10 µM (HCT-15 [14]): 50%
- inhibition of growth at 30 µM (A549 [15]): 55%
- pIC50 (HCT-15 [16]): 5.00
- inhibition of growth at 50 µM (HCT-15 [17]): 82%
- inhibition of growth at 10 µM (THP-1 [18]): 45%
- inhibition of growth at 50 µM (PC-3 [19]): 52%
- pIC50 (DU-145 [20]): 4.80
- inhibition of growth at 30 µM (MCF7 [21]): 72%
- inhibition of growth at 10 µM (SF-295 [22]): 35%
- inhibition of growth at 10 µM (A549 [23]): 54%
- inhibition of growth at 30 µM (THP-1 [24]): 65%
- pIC50 (A549 [25]): 4.85
- inhibition of growth at 30 µM (PC-3 [26]): 28%
- pIC50 (HEp-2 [27]): 4.85
- inhibition of growth at 50 µM (HL-60 [28]): 80%
- pIC50 (PC-3 [29]): 4.31
- inhibition of growth at 50 µM (A549 [30]): 57%
- inhibition of growth at 10 µM (MCF7 [31]): 50%
- inhibition of growth at 10 µM (HL-60 [32]): 50%
- inhibition of growth at 30 µM (SF-295 [33]): 72%
- inhibition of growth at 30 µM (HEp-2 [34]): 61%
- pIC50 (MCF7 [35]): 5.00
- inhibition of growth at 50 µM (THP-1 [36]): 78%
